# Source: the supplement of paper PMC4649846
# Several values for one entry are separate records, joined by “and”; a condition that tells them apart may be missing. Identical values can stand only once.
# What was measured:
# MDA-MB-231 [1] = conditions: incubation time: 72 h
# Experimental: (§1)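 MDA-MB-231 breast cancer cells were transfected with siBRCA1 or non-targeting siControl, then seeded 24 h later at 4000 cells/well in 384-well plates holding 198 drugs at 5 concentrations. Viability was read by CellTiter-Blue after 72 h at 37 °C. Dose-response curves were fitted in Dotmatics to give IC50 and a drug sensitivity score (DSS: area under the curve relative to the area between the 10% threshold and 100% inhibition, normalised by the log of the top response). The dose range is not stated. IC50 values of 8333.3 or 4166.7 nM mark no response (top dose), and 0.8333 nM is the lower limit.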
# MDA-MB-231 [2] = assay: drug sensitivity score (DSS); higher = more sensitive; extreme values may be limits of the assay; conditions: incubation time: 72 h
# Experimental: as §1
# [3] = siRNA: siControl (non-targeting)
Structure (SMILES),IC50 of cell viability (MDA-MB-231 [1]; siRNA: siBRCA1),IC50 of cell viability (MDA-MB-231 [1]; [3]) [µM],drug sensitivity score (MDA-MB-231 [2]; siRNA: siBRCA1),drug sensitivity score (MDA-MB-231 [2]; [3])
C[C@]12C=CC(=O)C=C1CC[C@@H]1[C@@H]2[C@@H](O)C[C@@]2(C)[C@H]1CC[C@]2(O)C(=O)CO [Prednisolone],> 4.17 µM,> 4.17,0,0
O=C(CCBr)N1CCN(C(=O)CCBr)CC1 [Pipobroman],> 4.17 µM,> 4.17,1.55,0
O=C(O)C1(C(=O)O)CCC1.[NH2-].[NH2-].[Pt+2] [Carboplatin],> 4.17 µM,> 4.17,0,0
NCC(=O)CCC(=O)O [Aminolevulinic acid],> 4.17 µM,> 4.17,0,0
CN1CCN(c2ccc3nc(-c4c(N)c5c(F)cccc5[nH]c4=O)[nH]c3c2)CC1 [Dovitinib],> 4.17 µM,> 4.17,0,0
C=C1C[C@@H]2[C@H](CC[C@]3(C)C(=O)CC[C@@H]23)[C@@]2(C)C=CC(=O)C=C12 [Exemestane],> 4.17 µM,> 4.17,0,0
Nc1nc2[nH]cnc2c(=S)[nH]1 [Thioguanine],1.85 µM,> 4.17,3.71,0
CS(=O)(=O)c1ccc(C(=O)Nc2ccc(Cl)c(-c3ccccn3)c2)c(Cl)c1 [Vismodegib],> 4.17 µM,> 4.17,0,0
N[C@@H](CSC(c1ccccc1)(c1ccccc1)c1ccccc1)C(=O)O [S-trityl-L-cysteine],0.929 µM,0.713,15.2,15.6
CO[C@H]1C[C@@H]2CC[C@@H](C)[C@@](O)(O2)C(=O)C(=O)N2CCCC[C@H]2C(=O)O[C@H]([C@H](C)C[C@@H]2CC[C@@H](OCCO)[C@H](OC)C2)CC(=O)[C@H](C)/C=C(\C)[C@@H](O)[C@@H](OC)C(=O)[C@H](C)C[C@H](C)/C=C/C=C/C=C/1C [Everolimus],0.00112 µM and < 0.000833 µM,< 0.000833,19.8 and 16.9,21.1 and 21.8
CC(C)C[C@H](NC(=O)[C@@H](COC(C)(C)C)NC(=O)[C@H](Cc1ccc(O)cc1)NC(=O)[C@H](CO)NC(=O)[C@H](Cc1c[nH]c2ccccc12)NC(=O)[C@H](Cc1cnc[nH]1)NC(=O)[C@@H]1CCC(=O)N1)C(=O)N[C@@H](CCCNC(=N)N)C(=O)N1CCC[C@H]1C(=O)NNC(N)=O [Goserelin],> 4.17 µM,> 4.17,0,0
O=NN(CCCl)C(=O)NCCCl [Carmustine],> 4.17 µM,> 4.17,0,0
Cc1ccc(NC(=O)c2ccc(CN3CCN(C)CC3)cc2)cc1Nc1nc(-c2cccnc2)cs1 [Masitinib],> 4.17 µM,1.41,0.717,4.31
Oc1ncc(N(CCCl)CCCl)c(O)n1 [Uracil mustard],> 4.17 µM,> 4.17,0,0
CC1=C(/C=C/C(C)=C/C=C/C(C)=C/C(=O)O)C(C)(C)CCC1 [Tretinoin],> 4.17 µM,> 4.17,0.0479,0
O=C1CN2Cc3c(ccc(Cl)c3Cl)N=C2N1 [Anagrelide],> 4.17 µM,> 4.17,0,0
COc1cccc2c1C(=O)c1c(O)c3c(c(O)c1C2=O)C[C@@](O)(C(C)=O)C[C@@H]3O[C@H]1C[C@H](N)[C@H](O)[C@H](C)O1 [Daunorubicin],0.159 µM,0.0522,19.8,24.9
CC(=O)c1c(C)c2cnc(Nc3ccc(N4CCNCC4)cn3)nc2n(C2CCCC2)c1=O,0.125 µM,0.248,6.11,9.43
COc1cc2c(N3CCN(C(=O)Nc4ccc(OC(C)C)cc4)CC3)ncnc2cc1OCCCN1CCCCC1 [Tandutinib],> 4.17 µM,1.13,0.708,3.18
C=CCn1c(=O)c2cnc(Nc3ccc(N4CCN(C)CC4)cc3)nc2n1-c1cccc(C(C)(C)O)n1 [MK1775],0.348 µM,0.23,13.2,14.3

Structure (SMILES),IC50 of cell viability (MDA-MB-231 [1]; siRNA: siBRCA1),IC50 of cell viability (MDA-MB-231 [1]; [3]) [µM],drug sensitivity score (MDA-MB-231 [2]; siRNA: siBRCA1),drug sensitivity score (MDA-MB-231 [2]; [3])
CC[C@@]1(O)C(=O)OCc2c1cc1n(c2=O)Cc2cc3c(CN(C)C)c(O)ccc3nc2-1 [Topotecan],0.661 µM,0.766,10.4,10.6
Nc1ccn([C@@H]2O[C@H](CO)[C@@H](O)C2(F)F)c(=O)n1 [Gemcitabine],2.49 µM,0.0787,7.87,12.8
CS(=O)(=O)N1CCN(Cc2cc3nc(-c4cccc5[nH]ncc45)nc(N4CCOCC4)c3s2)CC1 [GDC-0941 (Pictilisib)],2.53 µM,0.57,7.18,12
COc1ccc(S(=O)(=O)Nc2cccnc2Nc2ccc(O)cc2)cc1 [ABT-751],0.253 µM,0.308,13.9,13.5
CC1(C)NC(=O)N(c2ccc([N+](=O)[O-])c(C(F)(F)F)c2)C1=O [Nilutamide],> 4.17 µM,> 4.17,0,0
CCCS(=O)(=O)Nc1ccc(F)c(C(=O)c2c[nH]c3ncc(-c4ccc(Cl)cc4)cc23)c1F [PLX4032],> 4.17 µM,> 4.17,0,0
O=C(O)CCCc1ccc(N(CCCl)CCCl)cc1 [Chlorambucil],> 4.17 µM,> 4.17,0.465,0
CCC1(c2ccc(N)cc2)CCC(=O)NC1=O (stereo not given) [Aminoglutethimide],> 4.17 µM,> 4.17,0,0
NC(=O)NO [Hydroxyurea],> 4.17 µM,> 4.17,0,0
Nc1cccc2c1CN(C1CCC(=O)NC1=O)C2=O (stereo not given) [Lenalidomide],> 4.17 µM,> 4.17,0,0
O=c1[nH]c(=O)n([C@H]2C[C@H](O)[C@@H](CO)O2)cc1F [Floxuridine],0.748 µM,0.291,8.85,11.5
CS(=O)(=O)CCNCc1ccc(-c2ccc3ncnc(Nc4ccc(OCc5cccc(F)c5)c(Cl)c4)c3c2)o1 [Lapatinib],1.15 µM,> 4.17,4.84,0
CC(C)(C)NC(=O)[C@H]1CC[C@H]2[C@@H]3CC[C@H]4NC(=O)C=C[C@]4(C)[C@H]3CC[C@]12C [Finasteride],> 4.17 µM,> 4.17,0,0
Cc1ccc(NC(=O)c2ccc(CN3CCN(C)CC3)cc2)cc1Nc1nccc(-c2cccnc2)n1 [Imatinib],> 4.17 µM,> 4.17,0,0
CN1CCN(c2nc(C3=C(c4c[nH]c5ccccc45)C(=O)NC3=O)c3ccccc3n2)CC1 [Sotrastaurin],> 4.17 µM,> 4.17,0,0
S=P(N1CC1)(N1CC1)N1CC1 [Thiotepa],> 4.17 µM,> 4.17,0,0
CC/C(=C(\c1ccccc1)c1ccc(OCCN(C)C)cc1)c1ccccc1 [Tamoxifen],> 4.17 µM,> 4.17,0,0
CO[C@@]12[C@H](COC(N)=O)C3=C(C(=O)C(C)=C(N)C3=O)N1C[C@@H]1N[C@@H]12 [Mitomycin C],> 4.17 µM,> 4.17,0,0
C[C@]12CC[C@@H]3c4ccc(O)cc4C[C@@H](CCCCCCCCC[S+]([O-])CCCC(F)(F)C(F)(F)F)[C@H]3[C@@H]1CC[C@@H]2O (stereo not given in full) [Fulvestrant],> 4.17 µM,> 4.17,0,0
CN(Cc1cnc2nc(N)nc(N)c2n1)c1ccc(C(=O)N[C@@H](CCC(=O)O)C(=O)O)cc1 [Methotrexate],> 4.17 µM,0.00432,0,9.3
